Results reported in PubChem BioAssay (NCI).
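The compound was tested at five concentrations on cells cultured in 96-well plates, with a 48-hour exposure period. TGI: total growth inhibition.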

Experiments:
Test in all cases: DTP human tumour cell line panel, 48 h
[1] = system: OVCAR-3 ovarian
[2] = system: HT29 colon
[3] = system: UO-31 renal
[4] = system: SK-MEL-28 melanoma
[5] = system: OVCAR-8 ovarian
[6] = system: EKVX NSCLC
[7] = system: KM12 colon
[8] = system: IGROV1 ovarian
[9] = system: U251 CNS
[10] = system: SNB-19 CNS
[11] = system: LOX IMVI melanoma
[12] = system: SW-620 colon
[13] = system: BT-549 breast
[14] = system: RPMI-8226 leukemia
[15] = system: MDA-MB-231 breast

SMILES | TGI [1] [µM] | TGI [2] [µM] | TGI [3] [µM] | TGI [4] [µM] | TGI [5] [µM] | TGI [6] [µM] | TGI [7] [µM] | TGI [8] [µM] | TGI [9] [µM] | TGI [10] [µM] | TGI [11] [µM] | TGI [12] [µM] | TGI [13] [µM] | TGI [14] [µM] | TGI [15] [µM]
CCc1cn(C2CC(CO)C(CO)S2)c(=O)[nH]c1=O (stereo not given) | > 100 | > 100 | > 100 | > 100 | > 100 | > 100 | > 100 | > 100 | > 100 | > 100 | > 100 | > 100 | > 100 | > 100 | > 100
NC(N)=NS(=O)(=O)c1ccc(NCc2cccc3c(=O)c4ccc(Cl)cc4oc23)cc1 | > 18.3 | > 14.6 | > 12.1 | > 23.6 | > 13.7 | > 21.9 | > 25 | > 11 | > 14.6 | 22.2 | > 11.3 | > 16.8 | > 14.4 | > 25 | > 15.6
CCOC1OC(CO[Si](C)(C)C(C)(C)C)C(O)CC1n1ccc(=O)[nH]c1=O (stereo not given) | > 100 | > 100 | > 100 | > 100 | > 100 | > 100 | > 100 | 48.6 | > 100 | > 100 | 31.6 | 52 | > 100 | > 100 | > 100
